Source: EP1143981B1, “USE OF N-GLYCOLNEURAMINIC ACID AND ITS DERIVATIVES FOR THE MANUFACTURE OF A MEDICAMENT FOR THE TREATMENT OF HIV INFECTIONS” (Glukor, Inc., priority 1998, dated 2000)
pIC50: −log10 of the molar value.

Legend:
[1] = system: HIV-1ROJO; test: Reverse transcriptase activity assay in infected PBMCs; format: cell-based; details: PBMCs
From the text: PBMCs were isolated from fresh human blood obtained commercially from the American Red Cross (Baltimore, Maryland). CEM-SS cells were obtained from the NIH AIDS reagent program. The low passage, lymphotropic clinical isolate ROJO was obtained from a pediatric patient attending the AIDS Clinic at the University of Alabama at Birmingham. Phytohemagglutinin (PHA-P) was obtained from Sigma Chemical Co. (St. Louis, MO) and recombinant IL-2 was obtained from Amgen (San Francisco, CA). As a positive control for antiviral assays, AZT was obtained from the NIH AIDS Reagent Program. HIV-1RF also was obtained from the NIH AIDS reagent program. Tritiated thymidine triphosphate was obtained from New England Nuclear (Boston, MA). Each plate in each experiment contained cell control wells (cells only), virus control wells (cells plus virus), drug toxicity control wells (cells plus drug only), drug colorimetric control wells (drug only) as well as experimental wells (drug plus cells plus virus).
Fresh human PBMCs were isolated from voluntary Red Cross donors, seronegative for HIV and HBV. Leukophoresed blood was diluted 1:1 with Dulbecco's PBS, layered over 14 mL of Ficoll-Hypaque density gradient in a 50mL centrifuge and then centrifuged for 30 minutes at 600 x g. Banded PBMCs were gently aspirated from the resulting interface and subsequently washed twice with PBS by low speed centrifugation. […] PBMCs were maintained in this medium at a concentration of 1-2 x 10^6 cells/mL with bi-weekly medium changes until used in the assay.
(§1) For the standard PBMC assay, PHA-P stimulated cells from at least two normal donors were pooled, diluted in fresh medium to a final concentration of 1 x 10^6 cells/mL, and plated in the interior wells of a 96 well round bottom microplate at 50 µL/well (5 x 10^4 cells/well). Test drug dilutions were prepared at a 2X concentration in microfuge tubes and 100 µL of each concentration was placed in appropriate wells in a standard format. A predetermined dilution of virus stock was placed in each test well (50 µL, final MOI ≅ 0.1). Wells with cells and virus alone were used for virus control. Separate plates were prepared identically without virus for drug cytotoxicity studies using an XTT assay system. The PBMC cultures were maintained for seven days following infection, at which time cell-free supernatant samples were collected and assayed for reverse transcriptase activity as described below.
Virus Preparation: Pre-tittered aliquots of HIV-1ROJO and HIV-1RF were removed from the freezer (-80°C) and thawed to room temperature in a biological safety cabinet. The virus was resuspended and diluted into tissue culture medium such that the amount of virus added to each well in a volume of 50 µL will be the amount determined to give complete cell killing at 6 days post-infection.
Reverse Transcriptase Activity Assay: A microtiter based reverse transcriptase (RT) reaction was utilized as described by Buckheit et al., (1991), AIDS Research and Human Retroviruses, 7:295-302. Tritiated thymidine triphosphate (^3H-TTP) was suspended in distilled H2O at 5 Ci/mL. Poly rA and oligo dT were prepared as a stock solution which was kept at -20°C. RT reaction buffer was prepared fresh on a daily basis and contained 125 µL 1M EGTA, 125 µL dH2O, 110 µL 10% SDS, 50 µL 1M Tris (pH 7.4), 50 µL 1M DTT, and 40 µL 1M MgCl2. These three solutions were mixed together in a ratio of 2 parts ^3H-TTP, 1 part poly rA:oligo dT, and 1 part reaction buffer. Ten microliters of this reaction mixture were placed in a round bottom microtiter plate and 15 µL of virus containing supernatant were added and mixed. The plate was incubated at 37°C in a water bath with a solid support to prevent submersion of the plate and incubated for 60 minutes.

[2] = system: HIV-1IIIB; test: PBMC cell-based anti-HIV assay; details: PBMCs
Protocol: as §1
Reverse Transcriptase Activity Assay: A microtiter based reverse transcriptase (RT) reaction was utilized as described by Buckheit et al., (1991), AIDS Research and Human Retroviruses, 7:295-302. Tritiated thymidine triphosphate (^3H-TTP) was suspended in distilled H2O at 5 Ci/mL. […] Opti-Fluor-O (Packard) was added to each sample and incorporated radioactivity was quantified utilizing a Wallac 1450 MicroBeta Plus liquid scintillation counter. […]

## Cc1cn([C@H]2C[C@H](N=[N+]=[N-])[C@@H](CO)O2)c(=O)[nH]c1=O [AZT, reference compound]
[1]; 2hr pretreatment
  pIC50: 8.40
[1]; without pretreatment
  pIC50: 8.10
[2]
  pIC50: 8.70
